Two compounds from article PMC11325555, “Interaction of Bisphenol A and Its Analogs with Estrogen and Androgen Receptor from Atlantic Cod (Gadus morhua)” (Environmental Science & Technology, 2024) can be followed below.

The target of assay [1] is T1, Atlantic cod estrogen receptor alpha (gmEra) LBD (Gadus morhua, UniProt U5ILH7).
T1 sequence (U5ILH7 170-455): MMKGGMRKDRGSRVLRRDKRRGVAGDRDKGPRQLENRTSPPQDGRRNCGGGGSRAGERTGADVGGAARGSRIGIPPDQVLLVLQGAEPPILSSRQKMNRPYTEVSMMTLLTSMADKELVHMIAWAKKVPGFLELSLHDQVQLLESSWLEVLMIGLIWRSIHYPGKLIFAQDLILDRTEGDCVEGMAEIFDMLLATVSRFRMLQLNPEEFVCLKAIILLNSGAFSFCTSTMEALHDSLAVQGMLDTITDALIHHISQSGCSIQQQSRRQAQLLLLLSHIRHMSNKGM
Put plainly: Luciferase reporter gene assay, gmEra agonism (estrogenic activity) in transfected COS-7 cells. To be noted: luciferase reporter gene assay. How it is done: Ligand activation of gmEra and gmAra was studied with a luciferase reporter gene assay in COS-7 cells transiently transfected with the pCMX-GAL4(DBD)-gmEra(LBD) or pCMX-GAL4(DBD)-gmAra(LBD) plasmid by using the TransIT-LT1 reagent (TransIT-LT1 Transfection Reagent, Mirus). Cells were seeded into 96-well plates (5000 cells/well) and incubated for 24 h before cotransfection with the plasmid mixture (100 ng/well). The plasmid mixture contained GAL4-UAS luciferase reporter plasmid (tk-(MH100)x4 luc), the pCMX-GAL4(DBD)-gmEra(LBD) or pCMX-GAL4(DBD)-gmAra(LBD) receptor plasmids (2:1 reporter:receptor plasmid mass ratio), and a plasmid constitutively producing the β-galactosidase enzyme used for normalization of transfection efficiency (pCMV- β-Gal). […] The maximum DMSO/methanol concentrations in the exposure wells were 0.5% (v/v) in DMEM medium without phenol red (Sigma-Aldrich). After exposure, cells were lysed, and luciferase and beta-galactosidase activities were measured as luminescence and absorbance (420 nm) after the addition of luciferin and ONPG substrates, respectively, using an Enspire Multimode plate reader (PerkinElmer, Waltham, Massachusetts, USA).
Luciferase reporter gene assays were established with COS-7 cells transiently producing the LBD of gmEra (Figure S1) for evaluating the estrogenic potential of 12 bisphenols.
COS-7 cells transiently transfected with gmEra-LBD were exposed to EE2 (open circles), BPA (black circles), and 11 different BPA analogs (red squares and as indicated) at increasing concentrations. Responses are presented as mean fold activation in luciferase activity in comparison to solvent-exposed cells ± SEM from three independent experiments with three technical replicates (n = 9). The dose–response curves were created using nonlinear regression and the four parameter logistic fit in Graphpad Prism v.9. For comparison, the dose–response curve of BPA (black line) is indicated together with each individual BP tested (red line). *p < 0.05 versus solvent control by one-way ANOVA and Dunnett’s multiple comparison post hoc test.
(In general: In a reporter assay the amount or activity of a reporter protein is the signal.)

The subject of assay [2] is Er-mediated synthesis of Vtg in Atlantic cod PCLS. Briefly: Vitellogenin ELISA in media of exposed precision-cut liver slices (PCLS). It is filed as cell-based, Atlantic cod (Gadus morhua). To be noted: 96 h; for Vtg synthesis in PCLS, result in words: 1, 10, 100 μM bisphenols or 0.1, 1, 10 nM EE2, Vtg in media by ELISA. How it is done:
PCLS culturing and exposure assays were performed essentially as described previously,[42],[56] with the modifications described below. Juvenile Atlantic cod were killed by a blow to the head, and the liver was dissected out and placed in a Petri dish containing ice-cold PCLS buffer (122 mM NaCl, 4.8 mM KCl, 1.2 mM MgSO4, 11 mM Na2HPO4, 3.7 mM NaHCO3, […]). The liver was then cut into small tissue blocks (approximately 3 cm long, 2 cm wide, and 1–3 cm high) and kept in ice-cold complete culture medium (L-15 medium supplemented with 10% FBS and 1× antibiotic-antimycotic solution). For slicing, the tissue block was fixed on the specimen plate of a Leica vibrating blade microtome VT1200 (Leica, Wetzlar, Germany) using Loctite Super Glue (Clas Ohlson, Bergen, Norway), and 250 μm thick tissue slices were cut (under ice-cold PCLS buffer) and kept in a Petri dish with ice-cold complete culture medium. Using a sterile razor blade, the tissue slices (2 × 3 cm) were then divided into smaller pieces (approximately 4 × 4 mm) and distributed into a 12-well cell culture plate (Sarstedt, Nümbrecht, Germany), each well containing 6 slices and 2 mL of complete culture medium. The PCLS were preincubated at 10 °C for 2 h before exposure. After preincubation, 1 mL of the medium was removed from each well and replaced by 1 mL of fresh complete culture medium containing 2x the final desired concentration and incubated at 10 °C for 96 h with shaking at 50 rpm. […] At the end of the exposure, slices were collected with tweezers and rinsed briefly in cold PBS. Excess PBS was removed by carefully touching a dry surface of the culture plate with the slice 4 times before measuring the weight in a preweighed cryotube. The slices were then snap-frozen in liquid N2 and stored at −80 °C. The media was also sampled and stored at −80 °C for viability (LDH) assay and vitellogenin ELISA.
Vitellogenin (Vtg) in media collected from exposed PCLS was quantified using the Atlantic Cod Vitellogenin ELISA kit (Biosense Laboratories AS, Bergen, Norway) according to manufacturer’s instructions. Vtg was quantified in 100 μL of undiluted media and normalized to the weight of the liver tissue. Statistical analysis of ELISA data was performed with GraphPad Prism Software version 9 (GraphPad Prism, La Jolla, CA, USA) by using one-way ANOVA followed by Dunnett’s test (for normally distributed data) or Friedman test followed by Dunn’s test (for non-normally distributed data), as described previously for PCLS experiments (Yadetie et al.[42]).
Figure 5 Relative vitellogenin production in Atlantic cod precision-cut liver slices (PCLS) exposed to bisphenols and EE2. PCLS were exposed to 1, 10, and 100 μM bisphenols or 0.1, 1, and 10 nM EE2, for 96 h. EE2 was included as positive control for activation of the gmEra signaling pathway. Levels of induced Vtg in the PCLS media were measured using ELISA (Cod Vitellogenin ELISA kit, Biosense Laboratories AS). The data represents mean ± SEM of fold change (compared to solvent control) of Vtg levels from 4 to 10 fish. n = 8–10 for all bisphenols except for BADGE (n = 4). Asterisks denote significant changes (p < 0.05) compared to solvent control.
On the technique in general: In an ELISA, binding on a coated surface is turned into a signal by an enzyme label.

Molecules are shown by their SMILES.

On to `CC(C)(c1ccc(OCC2CO2)cc1)c1ccc(OCC2CO2)cc1` (centres unmarked) [BADGE], for which, in assay [1], the “gmEra activation, result in words” value is listed as “did not activate gmEra”. For the same compound, in assay [2], the “Vtg synthesis in PCLS, result in words” value is “small, but significant, decrease in the Vtg synthesis”.
Take `Oc1ccc(C2(c3ccc(O)cc3)c3ccccc3-c3ccccc32)cc1` [BPFL]: the “gmEra activation, result in words” value in assay [1] is “did not activate gmEra”. The “Vtg synthesis in PCLS, result in words” value in assay [2] was “only moderate and not statistically significant”. Further, the “concentration at which maximum Vtg levels were observed” value in assay [2] (1, 10, 100 μM tested) was 10 µM.
